In patent publication US20260041679A1, “METHOD OF TREATING HYPERTENSION WITH THE ALDOSTERONE SYNTHASE INHIBITOR BAXDROSTAT” (CINCOR PHARMA, INC., priority 2022, published 2026):

Tests used:
aldosterone synthase = molecular target: T1, aldosterone synthase (Homo sapiens, UniProt P19099); experiment: Study 121: pharmacodynamics, serum and 24-hour urine aldosterone, plasma renin activity, serum cortisol; assay type: in vivo
T1 construct: Pharmacodynamic measurements included plasma aldosterone, cortisol, and electrolytes; endogenous in cells; host or cells: human subjects in vivo (healthy volunteers; resistant hypertension patients)
T1 sequence (P19099 25-503): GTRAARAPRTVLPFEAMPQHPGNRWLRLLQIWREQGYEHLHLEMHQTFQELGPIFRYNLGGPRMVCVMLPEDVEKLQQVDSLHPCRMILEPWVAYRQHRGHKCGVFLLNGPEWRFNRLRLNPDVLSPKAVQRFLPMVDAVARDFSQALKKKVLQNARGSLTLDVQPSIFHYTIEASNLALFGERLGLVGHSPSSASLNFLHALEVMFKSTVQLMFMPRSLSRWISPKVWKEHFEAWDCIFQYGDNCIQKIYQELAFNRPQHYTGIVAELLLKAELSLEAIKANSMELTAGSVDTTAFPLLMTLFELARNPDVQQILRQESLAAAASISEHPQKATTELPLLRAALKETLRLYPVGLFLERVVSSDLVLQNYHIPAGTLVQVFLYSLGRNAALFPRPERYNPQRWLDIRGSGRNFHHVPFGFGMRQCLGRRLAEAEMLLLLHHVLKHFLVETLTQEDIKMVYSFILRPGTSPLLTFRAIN
Description: Blood and urine samples were collected for determination of the pharmacodynamic parameters related to baxdrostat mechanism of aldosterone suppression. Serum concentrations of aldosterone, aldosterone excreted in 24-hour urine collections, plasma renin activity (PRA) and serum cortisol are summarized by dose and by study day as shown in FIGS. 3A-3D. […] These hormonal data provide strong biochemical evidence to support the mechanism by which baxdrostat's inhibition of aldosterone synthesis produces a significant impact on blood pressure levels without lowering serum cortisol levels.

[1] = Study 121: adverse events, safety population
Description: In this study, adverse events of special interest (AESIs) were events of hypotension, low sodium levels or elevated potassium levels that required clinical intervention.

[2] = Single ascending dose study, safety and tolerability (Example 1); assay type: in vivo; conditions: single dose 1 to 360 mg
Procedure: Eighty-eight healthy male volunteers completed the first-in-human study of baxdrostat. In part 1 of the trial, subjects received a single oral dose of baxdrostat ranging from 1 to 360 mg in order to evaluate safety, tolerability, PK, and pharmacodynamics (PD). Part 2 evaluated the PK of a single 3 mg intravenous dose of baxdrostat.

CCC(=O)N[C@@H]1CCCc2c(-c3ccc4c(c3)CCC(=O)N4C)cncc21 [baxdrostat, (R)—N-(4-(1-methyl-2-oxo-1,2,3,4-tetrahydroquinolin-6-yl)-5,6,7,8-tetrahydroisoquinolin-8-yl) propionamide]
urinary aldosterone excretion (aldosterone synthase; 24-hour urine): significantly reduced urinary aldosterone excretion | suppression of aldosterone and augmentation of renin activity, male vs female patients (aldosterone synthase; in vivo): comparable between male and female patients | plasma renin activity (PRA) (aldosterone synthase; rHTN patients): increased PRA several-fold | total serum cortisol (aldosterone synthase; rHTN patients): no reduction in total serum cortisol | TESAE, Number of Subjects (Number of Events) ([1]; 0.5 mg): 0 (0) subjects (events) | TESAE: General disorders and administration site conditions ([1]; 0.5 mg): 0 subjects (events) | TESAE: Infections and infestations ([1]; 0.5 mg): 0 subjects (events) | TESAE: Metabolism and nutrition disorders ([1]; 0.5 mg): 0 subjects (events) | TESAE: Musculoskeletal and connective tissue disorders ([1]; 0.5 mg): 0 subjects (events) | TESAE: Nervous system disorders ([1]; 0.5 mg): 0 subjects (events) | TESAE: Renal and urinary disorders ([1]; 0.5 mg): 0 subjects (events) | TESAE: Respiratory, thoracic and mediastinal disorders ([1]; 0.5 mg): 0 subjects (events) | adverse events of special interest (AESIs), patients per arm ([1]; 0.5 mg): 1 | percentage of patients who experienced TEAEs ([1]; 0.5 mg): 34.8% | TESAE, Number of Subjects (Number of Events) ([1]; 1 mg): 2 (3) subjects (events) | TESAE: Infections and infestations ([1]; 1 mg): 1 (1) subjects (events) | TESAE: Intervertebral disc degeneration ([1]; 1 mg): 1 (1) subjects (events) | TESAE: Musculoskeletal and connective tissue disorders ([1]; 1 mg): 1 (1) subjects (events) | TESAE: Nephrolithiasis ([1]; 1 mg): 1 (1) subjects (events) | TESAE: Pyelonephritis ([1]; 1 mg): 1 (1) subjects (events) | TESAE: Renal and urinary disorders ([1]; 1 mg): 1 (1) subjects (events) | percentage of patients who experienced TEAEs ([1]; 1 mg): 52.2% | adverse events of special interest (AESIs), patients per arm ([1]; 1 mg arm): 5 | TESAE, Number of Subjects (Number of Events) ([1]; 2 mg): 6 (12) subjects (events) | TESAE: Acute kidney injury ([1]; 2 mg): 1 (1) subjects (events) | TESAE: Acute respiratory failure ([1]; 2 mg): 1 (1) subjects (events) | TESAE: Arthralgia ([1]; 2 mg): 1 (1) subjects (events) | TESAE: Cellulitis ([1]; 2 mg): 1 (1) subjects (events) | TESAE: Dehydration ([1]; 2 mg): 1 (1) subjects (events) | TESAE: Dizziness ([1]; 2 mg): 1 (1) subjects (events) | TESAE: Hyperglycaemia ([1]; 2 mg): 1 (1) subjects (events) | TESAE: Hyperkalemia ([1]; 2 mg): 1 (1) subjects (events) | TESAE: Hyponatraemia ([1]; 2 mg): 1 (1) subjects (events) | TESAE: Infections and infestations ([1]; 2 mg): 2 (2) subjects (events) | TESAE: Metabolism and nutrition disorders ([1]; 2 mg): 1 (4) subjects (events) | TESAE: Musculoskeletal and connective tissue disorders ([1]; 2 mg): 1 (1) subjects (events) | TESAE: Nervous system disorders ([1]; 2 mg): 2 (2) subjects (events) | TESAE: Renal and urinary disorders ([1]; 2 mg): 1 (1) subjects (events) | TESAE: Respiratory failure ([1]; 2 mg): 1 (1) subjects (events) | TESAE: Respiratory, thoracic and mediastinal disorders ([1]; 2 mg): 2 (2) subjects (events) | TESAE: Syncope ([1]; 2 mg): 1 (1) subjects (events) | TESAE: Urinary tract infection ([1]; 2 mg): 1 (1) subjects (events) | percentage of patients who experienced TEAEs ([1]; 2 mg): 47.8% | adverse events of special interest (AESIs), patients per arm ([1]; 2 mg arm): 2 | adrenal insufficiency ([1]; Study 121): no reported cases of adrenal insufficiency | deaths and relatedness of SAEs ([1]; Study 121): no deaths in the study and all SAEs were assessed by the investigators to be unrelated to baxdrostat | tolerability ([1]; once daily for 12 weeks): well tolerated | deaths, serious adverse events, dose-limiting adverse events [2]: no deaths, serious adverse events, or dose-limiting adverse events | side effects [2]: mild and included headache, nasopharyngitis, and diarrhea
